Measured values from patent US7402560B2, “NCAM binding compounds” (priority 1998, dated 2008).
Changes are numbered by the printed parent chain. Names may count otherwise. “Also recorded” adds a separate entry of the source. No end group written: not given here.

Columns and labels:
[1] = tested on: hippocampal neurons; assay: Neurite outgrowth from hippocampal neurons, stereological total neurite length per cell (ProcessLength); conditions: for neurite outgrowth (total neurite length per cell): low density culture
[2] = tested on: primary hippocampal neurones; assay: Neurite outgrowth from single primary hippocampal neurones (length of longest neurite, image analysis); format: cell-based, rat; conditions: for neurite outgrowth: substrate of plastic or fibronectin, 21 h
Description: The system allows the examination of cell adhesion, cell migration and formation of processes in the treated cells leading to possibly neurite outgrowth. To investigate the latter further, neurite extension from single neurones may be studied. Cells are prepared as in the aggregation study and seeded on a substrate of plastic or fibronectin. The cells are then maintained for a suitable time, whereafter the neurite outgrowth is analysed by a measurement of the neurite extension, for example by a computer-assisted image analysis program. The mean length of the longest neurite of each cell was measured for neurites longer than 10 μM (see FIG. 2). In addition, the mean number of branchpoints per neurite and the mean number of neurites per cell were determined. NCAM Ig1-Ig2 ligands to be tested are added immediately before seeding the cells.
5000 cells/well, corresponding to approximately 4000 cells/cm^2, were seeded in 8 well LabTek Tissue Culture Chamber Slides with a growth surface of Permanox plastic (NUNC A/S, Denmark) or fibronectin (cocultures) and maintained for 20 h as described in Example 7 (1).
To investigate the stimulatory effect on neurite extension, cells were prepared as described and seeded on a substrate of plastic or fibronectin. Cells were then maintained for 21 h and neurite outgrowth was analysed by computer-assisted image analysis using the program Linelength. The mean length of the longest neurite of each cell was measured for neurites longer than 10 μM. In addition, the mean number of branchpoints per neurite and the mean number of neurites per cell were determined.

[3] = target: T1, NCAM Ig1 domain (Rattus norvegicus, UniProt P13596); assay: Plasmon surface resonance analysis of binding to NCAM Ig1; conditions: dendrimer peptides immobilised on sensor chip CM5, Ig1 in solution, 25° C.
T1 construct: encoding amino acids 1-97 of rat NCAM; made in house; host or cells: Pichia pastoris strain His 4 GS-115 (pHIL-S1 plasmid)
Description: Real-time biomolecular interaction analysis was performed using a BIAlite instrument (Pharmacia Biosensor AB, Sweden). […] Binding of Ig1 to dendrimer peptides: […] of Ig1 or Ig1I at the indicated concentrations were applied. The chip was regenerated by two […] pulses of 5 mM NaOH. Two independent experiments were performed.

[4] = tested on: hippocampal cells; assay: Aggregate cultures of dissociated hippocampal cells (NCAM mediated cell adhesion); conditions: for aggregation of cells (number of cell aggregates): 24 h after seeding, higher number of aggregates reflects inhibition of aggregation; for inhibitory effect on aggregation of hippocampal cells: peptides at 180 μM (FIG. 19)
[5] = tested on: primary hippocampal neurones on monolayers of fibroblasts; assay: Neurite outgrowth in cocultures of neurones on fibroblast monolayers with or without NCAM-140; format: cell-based, rat; conditions: 0.54 or 5.4 μM
Description: For cocultures, neurones were seeded on monolayers of fibroblasts, either L-cells or 3T3 cells with or without NCAM-B expression. Neurones were visualised using immunohistochemical staining for growth associated protein 43 kD (GAP43). Briefly, cells were fixed 30 min in 4% paraformaldehyde in phosphate buffered saline (PBS). The primary antibody was rabbit anti-GAP43 1:100 in PBS with 1% fetal bovine serum(FBS), 0.1% bovine serum albumin (BSA), 50 mM glycine, 0.02% NaN3, 2% saponine 1 h at room temperature or overnight at 4° C. The second antibody was biotinylated swine-anti-rabbit immunoglobulins 1:100 in PBS with 1% BSA 1 h at room temperature. The third “layer” was streptavidine coupled to FITC or horse radish peroxidase (HRP) 1:100 1 h at room temperature. Between layers, washings were performed 3×20 min in PBS with 1% BSA. Images of living or stained neurones were captured and analysed by the image analysis program Line Length created at the Protein Laboratory. Putative axons were identified as the longest neurite of each cell. Only neurites longer than […] were considered.
The mean length of neurites on NCAM-expressing fibroblasts was longer than the mean length of neurites on fibroblasts without NCAM expression.

[6] = tested on: primary hippocampal neurones; assay: Cell proliferation by BrdU incorporation ELISA; format: cell-based
Description: (§1) Cell proliferation was determined by incorporation of 5-bromo-2′-deoxyuridin in a cell proliferation ELISA system (Amersham Life Science) according to the procedure of the manufacturer. Primary hippocampal neurones were seeded in microtiter plates at a density of 33000 cells per well. […] However, the net effect on proliferation depended on the growth status of cell. […] The net effect depends on the growth status of the cells but under the proper circumstances, a stimulation of proliferation will result.

[7] = tested on: neuroblastoma cells; assay: Proliferation of neuroblastoma cells; format: cell-based
[8] = tested on: PC12 cells; assay: Proliferation and neurite outgrowth of PC12 cells; format: cell-based, rat
Description: The effect of the ligands on proliferation and cell growth was also tested. […] After this initial promotion of proliferation, the peptides stimulate differentiation by increasing neurite outgrowth and at the same time suppressing proliferation. Thus the net effect on proliferation depends on the growth status of the cells. An effect on proliferation has been shown for primary cell cultures from the hippocampus cells and cultures of rat pheochromocytoma cell line PC12 cells. Accordingly, the ligands stimulate neurite outgrowth from and/or proliferation of NCAM presenting cells.
as §1

[9] = tested on: primary hippocampal cells; assay: Cell growth by Cristal Violet staining; format: cell-based; conditions: 0.8 μM, 48 h
Description: Cell growth is another way of monitoring proliferation of the cells. Primary hippocampal cells were seeded into 96 well microtiter culture plates (Nunc A/S) at a density of 20.000 or 40.000 per well in defined medium as described above. Cells were grown for 48 h, centrifuged in order to remove medium, fixed in 3.7% formaldehyde in PBS for 15 min and stained with 0.5% Cristal Violet in 20% methanol for 15 min. Stained cells were thoroughly washed with Milli Q purified water, thereafter residual dye was solubilised with 0.1 M sodium citrate in 50% ethanol pH 4.2 and absorbance measured at 550 nm.

[10] = target: T2, NCAM (20-208) (Rattus norvegicus, UniProt P13596); assay: Gel filtration chromatography of NCAM (20-208) dimer formation
T2 construct: made in house

COc1ccc2c(c1)CC[C@@H]1[C@@H]2CC[C@]2(C)[C@@H](NCCCCCCN3C(=O)C=CC3=O)CC[C@@H]12 [U-73122, reference compound] was tested, and the “effect on Ig2-peptide induced neurite outgrowth” value ([1]; 3.6 μM Ig2-peptide dendrimer, Ig1 25 μM, α-FGFR 1:2000, CHD 200 μM, U-73122 5 μM (FIG. 23)) was “completely abrogated”.

COC(=O)/C=C/c1cc(O)ccc1O [erbstatin analogue, reference compound] was tested, and the “effect on the stimulatory effect of C3 on neurite extension” value (“effect on the stimulatory effect of C3” for short) [2] was “inhibit the stimulatory effect of C3 on neurite extension”.

For COc1ccc(CCN(C)CCCC(C#N)(c2ccc(OC)c(OC)c2)C(C)C)cc1OC (stereo not shown) [verapamil, reference compound], the “effect on the stimulatory effect of C3” value [2] was “inhibit the stimulatory effect of C3 on neurite extension”.

AKKERQRKDTQ (peptide fragment) [D3] was tested, and the “binding to the NCAM Ig1 domain” value [3] was “bound the NCAM-Ig1 in solution; also recorded: bind to the NCAM Ig1 domain”, the neurite outgrowth [2] was “strongly stimulated neurite outgrowth; also recorded: increase in neurite outgrowth” and the “aggregation of cells (number of cell aggregates)” value [4] was “inhibited aggregation of cells; also recorded: higher number of cell aggregates”.

For ARALNWGAKPK (peptide fragment) [D4], the “binding to the NCAM Ig1 domain” value [3] was “bound the NCAM-Ig1 in solution; also recorded: bind to the NCAM Ig1 domain”, the neurite outgrowth [2] was “strongly stimulated neurite outgrowth; also recorded: increase in neurite outgrowth” and the “aggregation of cells (number of cell aggregates)” value [4] was “inhibited aggregation of cells; also recorded: higher number of cell aggregates”.

ASKKPKRNIKA (peptide fragment) [C3] was tested, and the “binding to the NCAM Ig1 domain” value [3] was “bound the NCAM-Ig1 in solution; also recorded: bind to the NCAM Ig1 domain”, the “concentration of maximal neuritogenic effect” value [2] was 0.54 µM and the branching of neurites ([2]; 0.54 μM) was “strongly stimulated”. For the same molecule, the “number of neurites per cell” value ([2]; 0.54 μM) was “strongly stimulated”, the “length of the longest neurite” value ([2]; 0.54 μM, plastic (FIG. 11)) was “strongly stimulated” and the neurite outgrowth [2] was “strongly stimulated neurite outgrowth; also recorded: increase in neurite outgrowth”. The “NCAM-induced increase in neurite length on NCAM-140 expressing fibroblasts (LBN)” value [5] was “no difference between the length of neurites on fibroblasts with or without NCAM expression”, the “neurite extension on fibroblasts without NCAM expression (LVN)” value [5] was “neurite extension was stimulated” and the proliferation ([6]; higher concentrations, bell-shaped dose-response curve) was “inhibited proliferation”. The “proliferation of neuroblastoma cells” value [7] was “promoted proliferation”, the “neurite outgrowth of PC12 cells” value [8] was “increased neurite outgrowth” and the “proliferation of PC12 cells” value [8] was “inhibitory effect on proliferation”. For the same molecule, the cell growth [9] was “increase cell growth” and the “aggregation of cells (number of cell aggregates)” value [4] was “inhibited aggregation of cells; also recorded: higher number of cell aggregates”.

With “C3d: Dendrimer of four C3 peptide monomers coupled to a backbone consisting of three lysines (ASKKPKRNIKA; also: dendrimer of four monomers coupled to a backbone of three lysines)” the “NCAM-induced increase in neurite length on NCAM-140 expressing fibroblasts (LBN)” value [5] was “inhibited”, the “neurite extension on fibroblasts without NCAM expression (LVN)” value [5] was “stimulated neurite out-growth” and the “incorporation of BrdU (neuronal proliferation)” value ([6]; 0.8 μM) was “increased incorporation of BrdU”. The “aggregation of cells (number of cell aggregates)” value [4] was “most potent form” and the “number of aggregates of primary hippocampal neurones” value ([4]; 24 h in culture, 1.07 μM and 2.15 μM) was “increase in the number of aggregates formed”.

In the case of “D3-dendrimer: Four D3 peptide-monomers coupled to a backbone consisting of three lysines (AKKERQRKDTQ; also: dendrimer of four monomers coupled to a backbone of three lysines)”, the “aggregation of cells (number of cell aggregates)” value [4] is reported as “increased the number of aggregates formed”.

For “D4-dendrimer: Four D4 peptide-monomers coupled to a backbone consisting of three lysines (ARALNWGAKPK; also: dendrimer of four monomers coupled to a backbone of three lysines)”, the “aggregation of cells (number of cell aggregates)” value [4] was “increased the number of aggregates formed”.

In the case of GEISVGESKFFL (peptide fragment) [Ig1-p], the aggregation of cells ([4]; 24 h, 250 μg/ml (FIG. 24)) is reported as “inhibited aggregation of cells” and the neurite outgrowth ([1]; 24 h, 5 μg/ml (FIG. 24)) is reported as “promote neurite outgrowth”.

For GRILARGEINFK (peptide fragment) [Ig2-p], the “aggregation of cells (number of cell aggregates)” value [4] was “inhibited aggregation of cells” and the “neurite outgrowth (total neurite length per cell)” value ([1]; 24 h) was “strongly stimulated neurite outgrowth”.

GSILASGESNFK (peptide fragment) [P2-3S] was tested, and the “inhibitory effect on aggregation of hippocampal cells” value ([4]; 24 h) was “no inhibitory effect” and the “neurite outgrowth (total neurite length per cell)” value ([1]; 24 h) was “no neuritogenic effect; also recorded: no stimulatory effect”.

With GSILASGSSNFK [P2-4S] the “inhibitory effect on aggregation of hippocampal cells” value ([4]; 24 h) was “only a slight inhibitory effect” and the “neurite outgrowth (total neurite length per cell)” value ([1]; 24 h) was “no neuritogenic effect; also recorded: no stimulatory effect”.

In the case of “omega-conotoxin GVIA [reference compound]”, the “effect on the stimulatory effect of C3” value [2] is reported as “inhibit the stimulatory effect of C3 on neurite extension”.

In the case of pertussis toxin [reference compound], the “effect on the stimulatory effect of C3” value [2] is reported as “inhibit the stimulatory effect of C3 on neurite extension”.

B1: Ig1-2: Unmutated recombinant double Ig domain (Ig1-Ig2) of NCAM, NCAM (20-208) (protein)
chain: LQVDIVPSQGEISVGESKFFLCQVAGDAKDKDISWFSPNGEKLSPNQQRISVVWNDDDSSTLTIYNANIDDAGIYKCVVTAEDGTQSEATVNVKIFQKLMFKNAPTPQEFKEGEDAVIVCDVVSSLPPTIIWKHKGRDVILKKDVRFIVLSNNYLQIRGIKKTDEGTYRCEGRILARGEINFKDIQVIV
For B1, the “dimer formation (elution in gel filtration)” value [10] was “elutes as a dimer” and the “neurite outgrowth (total neurite length per cell)” value ([1]; 24 h) was “only slight, if any, effect”.

B2: mutated double domain: NCAM (20-208) double Ig domain with mutations R192A, R196A and E198A (protein)
chain: B1 chain with R173A, R177A, E179A
For B2, the “neurite outgrowth (total neurite length per cell)” value ([1]; 24 h) was “inhibited in a dose dependent manner”.
